Measured values: patent publication US9504729B2, “Antiangiogenic small molecules and methods of use” (The United States of America, as represented by the …, priority 2009, dated 2016)

Tested on: angiogenesis genes in dermal microvascular endothelial cells
Assay: Real time RT-PCR of angiogenesis gene expression during endothelial tube formation
Type: cell-based
Details: 1 μM SM, 24 hours
Description: For gene expression studies, three independent experiments were run for each SM tested. 90.000 cells/well (6 wells/treatment) of dermal microvascular endothelial cells (Lonza, Walkersville, Md.) were seeded on polymerized GELTREX™ gel matrix (Invitrogen, Carlsbad, Calif.) in 24 well plates. Wells were immediately treated with the same volume of 1 μM SM or PBS. After 24 hours incubation at 37° C. and 5% CO2, cells were extracted using Cell Recovery Solution (BD Biosciences, San Jose, Calif., Cat. #354253). Total RNA was extracted with the RNeasy Mini Kit (Qiagen, Valencia, Calif., Cat. #74104), and retrotranscribed using […]® First-Strand reverse transcriptase (Invitrogen, Carlsbad, Calif., Cat. #11904-018). The real time PCR reactions were performed in an Opticon 2 cycler (MJ Research, Waltham, Mass.). Amplification was performed in a final volume of 25 μl, containing 2 μl cDNA (1:10 dilution from the reversed transcribed reaction) and 2 μl of primer mixture (10 μM each of forward and reverse primers). Samples were amplified as follows: after initial denaturation at 95 C for 2 minutes, reactions were run for 46 cycles at 95° C. for 30 seconds, 60° C. for 30 seconds, and 72° C. for 45 seconds. Fluorescence was measured in every cycle and a melting curve was run after the PCR by increasing temperature from 50 to 96° C. (in 0.5° C. increments). A defined single peak was obtained for all amplicons, thus confirming the specificity of the amplification.
The genes that were monitored were selected based on their relevance to the angiogenesis process. All experiments were done in triplicate. The results are shown in the volcano plots of FIG. 17. Log 2 fold-change is presented in the X-axis and log 10 P value in the Y-axis.

## COc1cc2cc(c1Cl)N(C)C(=O)CC(OC(=O)C(C)C)C1(C)OC1C(C)C1CC(O)(NC(=O)O1)C(OC)/C=C/C=C(\C)C2 (centres unmarked) [compound 292222]
  Log2 fold-change of gene expression: 1839: −0.1
  Log2 fold-change of gene expression: 4247: 0.5
  Log2 fold-change of gene expression: 5569: 1.5
  Log2 fold-change of gene expression: 8131: 0.1
  Log2 fold-change of gene expression: 9569: 0.2
  Log2 fold-change of gene expression: 10988: 1.0
  Log2 fold-change of gene expression: 23001: −0.8
  Log2 fold-change of gene expression: 55332: 2.4
  Log2 fold-change of gene expression: 57722: 0.0
  Log2 fold-change of gene expression: 58488: 1.0
  Log2 fold-change of gene expression: 90780: 0.1
  Log2 fold-change of gene expression: 134265: −1.3
  Log2 fold-change of gene expression: AKT1: 0.7
  Log2 fold-change of gene expression: ANGPT1: 0.9
  Log2 fold-change of gene expression: ANGPT2: −1.3
  Log2 fold-change of gene expression: ANGPTL3: 0.6
  Log2 fold-change of gene expression: ANGPTL4: 1.3
  Log2 fold-change of gene expression: ANPEP: −0.6
  Log2 fold-change of gene expression: ANTXR1: −0.2
  Log2 fold-change of gene expression: APOE: −2.2
  Log2 fold-change of gene expression: ARHGEF1: −0.9
  Log2 fold-change of gene expression: Acvrl1: 0.0
  Log2 fold-change of gene expression: Adcy4: −0.4
  Log2 fold-change of gene expression: BAL1: 0.2
  Log2 fold-change of gene expression: BMP1: 0.4
  Log2 fold-change of gene expression: C1orf54: −0.1
  Log2 fold-change of gene expression: CALD1: 0.6
  Log2 fold-change of gene expression: CCL2: 0.9
  Log2 fold-change of gene expression: CCL11: 0.2
  Log2 fold-change of gene expression: CD248: 1.3
  Log2 fold-change of gene expression: CDH5: −0.1
  Log2 fold-change of gene expression: CENTD3: −0.5
  Log2 fold-change of gene expression: CLIC1: 6.6
  Log2 fold-change of gene expression: COL4A3: 2.0
  Log2 fold-change of gene expression: COL18A1: 1.2
  Log2 fold-change of gene expression: COMT: −0.2
  Log2 fold-change of gene expression: CST4: 0.8
  Log2 fold-change of gene expression: CTTNBP2NL: 0.2
  Log2 fold-change of gene expression: CXCL3: 5.0
  Log2 fold-change of gene expression: CXCL5: 3.4
  Log2 fold-change of gene expression: CXCL6: 0.4
  Log2 fold-change of gene expression: CXCL9: 0.4
  Log2 fold-change of gene expression: CXCL10: 0.8
  Log2 fold-change of gene expression: Calcr1: −1.1
  Log2 fold-change of gene expression: Caskin2: −6.7
  Log2 fold-change of gene expression: Ccbp2: 0.4
  Log2 fold-change of gene expression: Cldn5: −0.1
  Log2 fold-change of gene expression: DGKG: 2.9
  Log2 fold-change of gene expression: DKK3: −1.1
  Log2 fold-change of gene expression: DLL4: −2.2
  Log2 fold-change of gene expression: DUT: −0.4
  Log2 fold-change of gene expression: EFNA1: 0.9
  Log2 fold-change of gene expression: EFNA3: 0.1
  Log2 fold-change of gene expression: EFNB2: −2.2
  Log2 fold-change of gene expression: EGF: 2.8
  Log2 fold-change of gene expression: ENG: −0.9
  Log2 fold-change of gene expression: EPHB4: −0.5
  Log2 fold-change of gene expression: EREG: 5.0
  Log2 fold-change of gene expression: ESAM1: −1.1
  Log2 fold-change of gene expression: EXTL3: 0.8
  Log2 fold-change of gene expression: Egf17: −1.2
  Log2 fold-change of gene expression: Ehd4: −1.4
  Log2 fold-change of gene expression: Entpd1: −5.5
  Log2 fold-change of gene expression: Epas1: −1.7
  Log2 fold-change of gene expression: EphB1: 0.9
  Log2 fold-change of gene expression: Erg: 3.7
  Log2 fold-change of gene expression: FGF1: −1.4
  Log2 fold-change of gene expression: FGF2: −0.6
  Log2 fold-change of gene expression: FGFR3: 0.8
  Log2 fold-change of gene expression: FIGF: 0.1
  Log2 fold-change of gene expression: FLT1: −0.2
  Log2 fold-change of gene expression: Fgd5: −0.8
  Log2 fold-change of gene expression: GPCR124: −1.9
  Log2 fold-change of gene expression: GRRP1: 0.1
  Log2 fold-change of gene expression: Grp116: −4.4
  Log2 fold-change of gene expression: HAND2: 1.0
  Log2 fold-change of gene expression: HGF: 1.3
  Log2 fold-change of gene expression: HIF1A: −0.7
  Log2 fold-change of gene expression: HPSE: 1.6
  Log2 fold-change of gene expression: Hspa12b: −2.2
  Log2 fold-change of gene expression: ID1: 0.0
  Log2 fold-change of gene expression: ID3: −0.2
  Log2 fold-change of gene expression: IFNA1: 0.8
  Log2 fold-change of gene expression: IFNB1: 1.1
  Log2 fold-change of gene expression: IFNG: 3.1
  Log2 fold-change of gene expression: IGF1: 6.0
  Log2 fold-change of gene expression: IL1B: 4.3
  Log2 fold-change of gene expression: IL6: 3.0
  Log2 fold-change of gene expression: IL8: 13.9
  Log2 fold-change of gene expression: ITGAV: 1.2
  Log2 fold-change of gene expression: ITGB3: 2.5
  Log2 fold-change of gene expression: Icam1: 0.5
  Log2 fold-change of gene expression: Icam2: 0.1
  Log2 fold-change of gene expression: JAG1: 1.6
  Log2 fold-change of gene expression: KDR: −1.2
  Log2 fold-change of gene expression: Kifc1: 0.5
  Log2 fold-change of gene expression: LAMAS5: −0.4
  Log2 fold-change of gene expression: LECT1: 1.4
  Log2 fold-change of gene expression: LEP: −0.6
  Log2 fold-change of gene expression: Lasts2: 0.1
  Log2 fold-change of gene expression: Lrrk1: −0.1
  Log2 fold-change of gene expression: MDK: 0.8
  Log2 fold-change of gene expression: MMP2: 2.8
  Log2 fold-change of gene expression: MMP9: 3.3
  Log2 fold-change of gene expression: MMP11: 0.1
  Log2 fold-change of gene expression: MRC2: 0.6
  Log2 fold-change of gene expression: Mmm2: −1.0
  Log2 fold-change of gene expression: Myo1b: −1.5
  Log2 fold-change of gene expression: NID1: −2.5
  Log2 fold-change of gene expression: NM023516: 0.4
  Log2 fold-change of gene expression: NRP1: 0.8
  Log2 fold-change of gene expression: NRP2: 1.0
  Log2 fold-change of gene expression: Notch4: −0.4
  Log2 fold-change of gene expression: Npr3: 0.9
  Log2 fold-change of gene expression: PALD: 1.8
  Log2 fold-change of gene expression: PDCD2: 0.2
  Log2 fold-change of gene expression: PDGFA: 1.6
  Log2 fold-change of gene expression: PECAM1: −0.7
  Log2 fold-change of gene expression: PGF: 0.6
  Log2 fold-change of gene expression: PLAU: 2.7
  Log2 fold-change of gene expression: PLG: −0.7
  Log2 fold-change of gene expression: PNMT: 0.1
  Log2 fold-change of gene expression: PROK2: 1.9
  Log2 fold-change of gene expression: PTGS1: 2.0
  Log2 fold-change of gene expression: PTPRCAP: 0.1
  Log2 fold-change of gene expression: Pltp: 0.4
  Log2 fold-change of gene expression: Ptprb: 0.3
  Log2 fold-change of gene expression: Ptprm: −0.1
  Log2 fold-change of gene expression: RAMP2: −0.6
  Log2 fold-change of gene expression: RASD2: 0.3
  Log2 fold-change of gene expression: Rasip1: −0.3
  Log2 fold-change of gene expression: S1PR1: −0.3
  Log2 fold-change of gene expression: SERPINF1: 2.3
  Log2 fold-change of gene expression: SPHK1: 2.0
  Log2 fold-change of gene expression: STAB1: 0.2
  Log2 fold-change of gene expression: Sdc4: 0.7
  Log2 fold-change of gene expression: Sdpr: −4.9
  Log2 fold-change of gene expression: Slc43a3: 1.0
  Log2 fold-change of gene expression: Slco2a1: −5.3
  Log2 fold-change of gene expression: TEK: 2.0
  Log2 fold-change of gene expression: TGFA: −3.4
  Log2 fold-change of gene expression: TGFB1: 1.1
  Log2 fold-change of gene expression: TGFB2: 1.9
  Log2 fold-change of gene expression: TGFBR1: 1.8
  Log2 fold-change of gene expression: THBS1: 1.1
  Log2 fold-change of gene expression: THBS2: 1.9
  Log2 fold-change of gene expression: THY1: −8.0
  Log2 fold-change of gene expression: TIMP1: 1.6
  Log2 fold-change of gene expression: TIMP2: 1.1
  Log2 fold-change of gene expression: TIMP3: −0.4
  Log2 fold-change of gene expression: TNF: 1.0
  Log2 fold-change of gene expression: TNS1: −0.3
  Log2 fold-change of gene expression: TNS3: 0.5
  Log2 fold-change of gene expression: TRA2B: −0.6
  Log2 fold-change of gene expression: TYMP: −0.1
  Log2 fold-change of gene expression: VEGFA: 3.2
  Log2 fold-change of gene expression: VEGFC: 2.7
  Log2 fold-change of gene expression: VGLL4: −0.8
  Log2 fold-change of gene expression: Vwf: −3.3
  Log2 fold-change of gene expression: copa: 0.2
  Log2 fold-change of gene expression: itbp4: 0.1
  Log2 fold-change of gene expression: ralb: −0.4
  Log2 fold-change of gene expression: stard9: 0.8
1st listing (r49)
  Log2 fold-change of gene expression: B2M: −0.4
1st listing (r50)
  Log2 fold-change of gene expression: HPRT1: 0.3
1st listing (r51)
  Log2 fold-change of gene expression: RPL13A: 0.7
1st listing (r52)
  Log2 fold-change of gene expression: GADPH: −0.1
1st listing (r53)
  Log2 fold-change of gene expression: ACTB: −0.8
1st listing (r74)
  Log2 fold-change of gene expression: PLXDC1: −0.1
1st listing (r91)
  Log2 fold-change of gene expression: TNFAIP2: 0.6
1st listing (r95)
  Log2 fold-change of gene expression: Robo4: 1.1
1st listing (r134)
  Log2 fold-change of gene expression: 151516: 0.7
2nd listing (r92)
  Log2 fold-change of gene expression: TNFAIP2: 0.2
2nd listing (r97)
  Log2 fold-change of gene expression: B2M: 1.3
2nd listing (r98)
  Log2 fold-change of gene expression: HPRT1: 1.4
2nd listing (r99)
  Log2 fold-change of gene expression: RPL13A: 1.7
2nd listing (r100)
  Log2 fold-change of gene expression: GADPH: 1.4
2nd listing (r101)
  Log2 fold-change of gene expression: ACTB: −6.3
2nd listing (r104)
  Log2 fold-change of gene expression: PLXDC1: 0.3
2nd listing (r139)
  Log2 fold-change of gene expression: 151516: 0.7
2nd listing (r188)
  Log2 fold-change of gene expression: Robo4: 0.0
3rd listing (r145)
  Log2 fold-change of gene expression: B2M: 0.0
3rd listing (r146)
  Log2 fold-change of gene expression: HPRT1: 0.2
3rd listing (r147)
  Log2 fold-change of gene expression: RPL13A: 0.3
3rd listing (r148)
  Log2 fold-change of gene expression: GADPH: −0.1
3rd listing (r149)
  Log2 fold-change of gene expression: ACTB: −0.9
4th listing (r193)
  Log2 fold-change of gene expression: B2M: 0.6
4th listing (r194)
  Log2 fold-change of gene expression: HPRT1: 0.4
4th listing (r195)
  Log2 fold-change of gene expression: RPL13A: 1.2
4th listing (r196)
  Log2 fold-change of gene expression: GADPH: −0.2
4th listing (r197)
  Log2 fold-change of gene expression: ACTB: −0.6
